Entries after “also recorded” stand apart in the source; their conditions may differ.

The subject of data set [1] is PL-binding proteins in MOLT4 cells. The experiment in a line: Competitive ABPP with PL-Alkyne probe and LC-MS/MS in MOLT4 cells. The arrangement: species or system Human. On the procedure:
Competitive ABPP. MOLT4 cells (2×10^7) were pre-treated with DMSO or 20 µM PL for 4 h and then treated with 1 μM PL-Alkyne probe (Zhang et al., 2018b) for an additional 4 h. The cells were then harvested and lysed in 1× Dulbecco's phosphate-buffered saline (PBS) buffer (Cat. #D1408, Sigma-Aldrich) containing protease and phosphatase inhibitors. CuAAC reaction was performed as previously described (Spradlin et al., 2019) and biotinylated proteins were enriched using Pierce™ streptavidin agarose beads (Cat. #20353, ThermoFisher).
Sample preparation and LC-MS/MS analysis. Protein samples were reduced, alkylated, and digested on-bead using filter-aided sample preparation (Wisniewski et al., 2009) with sequencing grade modified porcine trypsin (Cat. No. V5111, Promega). […]
The MS/MS was acquired according to standard conditions established in the lab. […] The scan sequence of the mass spectrometer was based on the original TopTen™ method; the analysis was programmed for a full scan recorded between 375-1575 Da at 60,000 resolution, and a MS/MS scan at resolution 15,000 to generate product ion spectra to determine amino acid sequence in consecutive instrument scans of the fifteen most abundant peaks in the spectrum. […]
Data processing and analysis. All MS/MS samples were analyzed using Sequest (Thermo Fisher Scientific, San Jose, CA, USA; version IseNode in Proteome Discoverer 2.4.0.305). […]

The test system of data set [2] is proteins in senescent WI38 cells. Particulars: cited from earlier work.
Another data set concerns the target CDK9 (Homo sapiens, UniProt P50750). The experiment in a line: CDK9 degradation in MOLT4 cells (immunoblot). The data set is classed as cell-based. Further details: endogenous in cells; host or cells: MOLT4, 293T, K562, NCI-H1299, LNCaP. Particulars: immunoblot. On the procedure: All the cell lines were maintained in a humidified incubator at 37° C. and 5% CO2.
Data analysis was performed using GraphPad Prism software (version 9) unless indicated otherwise. All graphs presented represent the mean±standard deviation of the mean (SD) unless otherwise stated.

The test system of data set [3] is LNCaP prostate cancer cells and H1299 lung cancer cells. The experiment in a line: Cell killing (MTS) with or without KEAP1 siRNA knockdown. In kind it is cell-based, Human. Particulars: KEAP1 siRNA vs control siRNA 48 h; compound 0.1 mM (LNCaP) or 0.3 mM (H1299) for 24 h. The protocol: FIGS. 19A to 19B show percentages of cell killing in LNCaP (FIG. 19A) and H1299 (FIG. 19B) cells with or without KEAP1 knockdown. LNCaP and H1299 cells were treated with control siRNA or siRNAs targeting KEAP1 for 48 h and then reseeded and treated with indicated compound (0.1 mM for LNCaP cells and 0.3 mM for H1299 cells) for 24 h. The cell viability was then determined by MTS assay. The data are presented as mean±SD from three replicate cell cultures in a representative experiment. Data are representative of two independent experiments. Statistical significance was calculated with unpaired two-tailed Student's t-tests. **P<0.01; ***P<0.001; NS: not significant.
Viability (MTS) assays in various cancer cells followed the methods described in our previous report (Khan et al., 2019). The data were expressed as average % cell viability and fitted in non-linear regression curves using GraphPad Prism 9 (GraphPad Software, La Jolla, CA, USA).

For data set [4], the target named is T1, CDK9: 955: KEAP1 ternary complex (Homo sapiens, UniProt P50750+Q14145).
T1 construct: expressed in transfected cells; host or cells: 293T
T1 sequence (P50750 whole entry): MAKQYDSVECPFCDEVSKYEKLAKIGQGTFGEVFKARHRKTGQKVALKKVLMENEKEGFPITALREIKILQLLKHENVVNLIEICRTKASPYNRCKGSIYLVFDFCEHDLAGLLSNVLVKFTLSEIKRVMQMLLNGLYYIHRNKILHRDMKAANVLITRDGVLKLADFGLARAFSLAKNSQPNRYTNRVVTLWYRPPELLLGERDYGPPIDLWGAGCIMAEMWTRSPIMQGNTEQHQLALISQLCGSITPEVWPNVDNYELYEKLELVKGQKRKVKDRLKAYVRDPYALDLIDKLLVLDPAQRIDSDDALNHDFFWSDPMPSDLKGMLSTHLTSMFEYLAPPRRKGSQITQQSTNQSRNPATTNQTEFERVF
T1 sequence (Q14145 whole entry): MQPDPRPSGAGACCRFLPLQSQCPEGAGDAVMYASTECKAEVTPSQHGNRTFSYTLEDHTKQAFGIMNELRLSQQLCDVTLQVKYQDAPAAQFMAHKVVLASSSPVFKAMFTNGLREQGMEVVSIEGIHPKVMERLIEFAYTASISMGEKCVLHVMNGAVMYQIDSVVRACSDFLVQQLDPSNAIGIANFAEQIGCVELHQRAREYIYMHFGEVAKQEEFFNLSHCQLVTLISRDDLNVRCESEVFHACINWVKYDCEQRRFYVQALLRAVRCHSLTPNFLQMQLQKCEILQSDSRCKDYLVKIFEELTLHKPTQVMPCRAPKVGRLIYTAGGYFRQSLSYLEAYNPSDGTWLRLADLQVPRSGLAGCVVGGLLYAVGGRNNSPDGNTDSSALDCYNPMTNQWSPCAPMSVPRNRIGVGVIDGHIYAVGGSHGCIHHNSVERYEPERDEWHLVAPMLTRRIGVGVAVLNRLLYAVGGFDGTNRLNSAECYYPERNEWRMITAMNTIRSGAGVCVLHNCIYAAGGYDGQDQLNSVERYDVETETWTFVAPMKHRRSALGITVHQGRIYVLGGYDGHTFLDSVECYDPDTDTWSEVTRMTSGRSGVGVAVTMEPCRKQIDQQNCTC
The experiment in a line: NanoBRET ternary complex formation assay in live 293T cells. The following applies: HiBit-CDK9 and Halo-KEAP1 in 293T cells, 6 h. In kind it is cell-based. An excerpt:
CMV HiBit (Cat. No. CS1956B03) was purchased from Promega. Plasmid HaloTag-KEAP1 (a gift from Yimon Aye, plasmid #58240) was purchased from Addgene. HiBit-CDK9 were constructed through the Gibson assembly method. The primer pair (5′-[…]atggcaaagcagtacgactcggtggag-3′ and 5′-[…]gaagacgcgctcaaactccgtctggt-3′) and the template HA-CDK9 (a gift from Andrew Rice, plasmid #28102) was used to clone the CDK9 fragment. The primer pair (5′-accagacggagtttgagcgcgtcttc[…]-3′ and 5′-ctccaccgagtcgtactgcttcgccat[…]-3′) and pBit3.1—N(Cat. No. N2361, Promega) were used to clone the vector-containing fragment. The PCR fragments were assembled using NEBuilder® HiFi DNAAssembly Master Mix. DNA sequences in all these plasmids were authenticated by automatic sequencing. […] After treatment, NanoBRET Nano-Glo Substrate (Cat. No. N1662, Promega) was added into the medium, and the contents were mixed by shaking the plate for 30 s before measuring donor and acceptor signals on Biotek plate reader. Dual-filtered luminescence was collected with a 450/50 nm bandpass filter (donor, NanoBiT-CDK9 protein) and a 610-nm longpass filter (acceptor, HaloTag NanoBRET ligand) using an integration time of 0.5 s. mBRET ratios were calculated following the NanoBRET™ Nano-Glo® Detection System (Cat. No. N1662, Promega).
(In general: Bioluminescence resonance energy transfer reports proximity on the nanometre scale.)

A further data set has as its target T2, EML4-ALK (Homo sapiens, UniProt Q9UM73).
T2 construct: endogenous in cells; host or cells: NCI-H2228; the other entry of the earlier key: EML4 (Q9HC35, Echinoderm microtubule-associated protein-like 4)
Nature of the data set: EML4-ALK degradation in NCI-H2228 cells (immunoblot). The data set is classed as cell-based. On the procedure: Human T-ALL MOLT4 (Cat. No. CRL-1582), K562 (Cat. No. CCL-243), NCI-H1299 (Cat. No. CRL-5803), NCI-H2228 (Cat. No. CRL-5935), LNCaP (Cat. No. CRL-1740), 22RV1 (Cat. No. CRL-2505), PC3 (Cat. No. CRL-1435), DU145 (Cat. No. HTB-81), and epithelial kidney HEK 293T (293T, Cat. No. ACS-4500) cell lines were recently purchased from American Type Culture Collection (ATCC, Manassas, VA, USA). MOLT4, K562, NCI—H-1299, NCI-H2228, LNCap, and 22RV 1 cell lines were cultured in RPMI 1640 medium (Cat No. 22400-089, Thermo Fisher Scientific, Waltham, MA, USA) supplemented with 10% (v/v) heat-inactivated fetal bovine serum (FBS, Cat. No. S11150H, Atlanta Biologicals, Flowery Branch, GA, USA), 100 U/mL penicillin and 100 pig/mL streptomycin (Pen-Strep, Cat. No. 15140122, Thermo Fisher Scientific). PC3 cells were cultured in complete F—12K medium (Kaighn's modification of Ham's F-12 medium, Cat. No. 30-2004, ATCC) supplemented with 10% (v/v) heat-inactivated FBS, 100 U/mL penicillin, and 100 μg/mL streptomycin. DU145 cells were cultured in complete Eagle's Minimum Essential Medium (EMEM, Cat. No. 30-2003, ATCC) supplemented with 10% (v/v) heat-inactivated FBS, 100 U/mL penicillin, and 100 μg/mL streptomycin. […]
Immunoblot data were quantified using the ImageJ (v 1.53a) software from NIH. […]

Sequence of CDK9 (P50750 whole entry): as the sequence (P50750 whole entry) above
T2 sequence (Q9UM73 with tags, fused parts or gaps): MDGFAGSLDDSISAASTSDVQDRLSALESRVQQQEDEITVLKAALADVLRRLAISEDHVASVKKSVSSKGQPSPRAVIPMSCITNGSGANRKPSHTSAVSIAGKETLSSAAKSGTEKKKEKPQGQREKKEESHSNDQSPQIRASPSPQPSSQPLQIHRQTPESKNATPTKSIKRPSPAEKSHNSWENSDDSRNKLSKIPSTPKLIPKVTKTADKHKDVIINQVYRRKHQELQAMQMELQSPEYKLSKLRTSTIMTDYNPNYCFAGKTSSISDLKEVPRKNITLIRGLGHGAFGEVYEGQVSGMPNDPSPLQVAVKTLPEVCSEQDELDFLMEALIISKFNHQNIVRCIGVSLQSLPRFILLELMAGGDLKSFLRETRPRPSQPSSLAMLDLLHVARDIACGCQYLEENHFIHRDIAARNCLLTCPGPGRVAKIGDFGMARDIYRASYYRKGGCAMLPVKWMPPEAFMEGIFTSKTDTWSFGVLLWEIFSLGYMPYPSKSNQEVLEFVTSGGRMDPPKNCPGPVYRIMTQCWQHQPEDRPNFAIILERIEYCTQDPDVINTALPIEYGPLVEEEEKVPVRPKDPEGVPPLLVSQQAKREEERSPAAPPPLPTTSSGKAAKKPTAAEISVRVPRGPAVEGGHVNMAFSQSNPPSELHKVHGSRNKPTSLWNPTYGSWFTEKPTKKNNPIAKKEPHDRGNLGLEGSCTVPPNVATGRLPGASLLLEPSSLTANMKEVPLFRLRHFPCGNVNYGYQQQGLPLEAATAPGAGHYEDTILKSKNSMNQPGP

As to `COc1cc(/C=C/C(=O)N2CCC=CC2=O)cc(OC)c1OC` [PL, Piperlongumine], the “number of PL-binding E3 ligases” value in data set [1] is 9; in data set [2] (senescent cells, previous study (Zhang et al., 2018b)), 8. For the same compound, the “number of PL-binding proteins” value is listed as “about 300” in data set [1] and 172 in data set [2] (senescent WI38 fibroblasts, previous study). In addition, the CDK9 degradation entry at CDK9 was “only 955, degraded CDK9; also recorded: none of these treatments degraded CDK9”.
As for `COc1cc(CCC(=O)N2CCCCC2=O)cc(OC)c1OCCN1CCN(C(=O)CN2CCC(C(=O)Nc3ncc(SCc4ncc(C(C)(C)C)o4)s3)CC2)CC1` [compound 336, N-(5-(((5-(tert-butyl)oxazol-2-yl)methyl)thio)thiazol-2-yl)-1-(2-(4-(2-(2,6-dimethoxy-4-(3-oxo-3-(2-oxopiperidin-1-yl)propyl)phenoxy)ethyl)piperazin-1-yl)-2-oxoethyl)piperidine-4-carboxamide], in data set [3], the “effect of KEAP1 knockdown on cytotoxicity of the compound” value was “no significant effect”. Moreover, in data set [4], the “formation of the CDK9:KEAP1 ternary complex” value is on record as “did not; also recorded: negligible”. For the same compound, on CDK9, the CDK9 degradation entry is listed as “could not induce CDK9 degradation; also recorded: but not 336, can induce CDK9 degradation; also recorded: cannot degrade CDK9”.
Consider `COc1cc(/C=C/C(=O)N2CCC=CC2=O)cc(OC)c1OCC(=O)N1CCC(c2cc(OC(C)C)c(Nc3ncc(Cl)c(Nc4ccccc4S(=O)(=O)C(C)C)n3)cc2C)CC1` [compound 819, (E)-1-(3-(4-(2-(4-(4-((5-chloro-4-((2-(isopropylsulfonyl)phenyl)amino)pyrimidin-2-yl)amino)-5-isopropoxy-2-methylphenyl)piperidin-1-yl)-2-oxoethoxy)-3,5-dimethoxyphenyl)acryloyl)-5,6-dihydropyridin-2(1H)-one], for which the “819-induced EML4-ALK degradation after pre-treatment with MG132, MLN4924 or DMF” value on EML4-ALK is “can be blocked”. Further, the EML4-ALK degradation result at EML4-ALK (immunoblot) is on record as “concentration-dependent manner; also recorded: degrades EML4-ALK”.

These data come from patent US20250057963A1, “DISCOVERY OF PIPERLONGUMINE AS A NOVEL E3 LIGASE LIGAND” (University of Florida Research Foundation, Incorporated, priority 2021, published 2025).
